Experiment [1] has as its system human coronary artery endothelial cells (hCaEC). The experiment in a line: hCaEC migration in modified Boyden chambers. The experiment is classed as cell-based. The following applies: for effect on full growth media induced hCaEC migration: 24 hours drug pretreatment in hCaEC full growth media, drug present during migration, FIG. 2; for effect on FBS-induced hCaEC migration: 24 hours drug pretreatment in growth media, migration in response to 5% FBS without additional growth factors, FIG. 3; for effect on hCaEC migration: FIG. 1A. The method, then: (§1) The cancer chemotherapeutic, paclitaxel is hypothesized to directly interfere with microtubule homeostasis leading to the inhibition of EC migration and proliferation, which can lead to increased thrombosis. Reduced p70S6K activation alone will not result in anti-migratory activity. To examine the comparative effects of sirolimus, zotarolimus, dexamethasone, and paclitaxel on human coronary artery smooth muscle and endothelial cell migration, studies were conducted using modified Boyden chambers. As such, EC migration in response to HFGF, HEGF, VEGF, R^3-IGF-1 and FBS was determined using a modified Boyden chamber. Migration was induced using a variety of chemotactic stimuli including fetal bovine serum (FBS) in the presence and absence of growth factors as well as […] homodimer B (PDGF-BB). Anti-migratory activity was assessed after acute drug treatment and after pretreatment (24 hours) in basal or growth conditions.
(§2) Primary human coronary artery smooth muscle (hCaSMC) and endothelial cells (hCaEC) obtained from Cambrex (Walkersville, Md.) were routinely maintained in media recommended by the manufacturer. The hCaSMC were grown in a smooth muscle growth medium (“minimal media”, SmnBM, Cambrex) supplemented with the appropriate SingleQuot® to yield the complete medium containing 5% FBS, 0.1% hEGF, 0.2% hFGF-B, and 0.1% insulin (hCaSMC growth media). The hCaEC were maintained in the corresponding complete medium consisting of an endothelial cell growth medium (“minimal media”, EBM-2, Cambrex) supplemented with the appropriate SingleQuot® to yield the complete medium containing 5% FBS, 0.1% HEGF-B, 0.4% FGF, 0.1% R3-IGF, 0.04% hydrocortisone, 0.1% VEGF, and 0.1% ascorbic acid (hCaEC growth media). Cells were routinely propagated in the appropriate medium in humidified incubators maintained at 37° C. in an atmosphere containing 5% CO2. When necessary, each cell type was passed at 75% confluence.
(§3) Cells were maintained and used prior to 7 population doublings in all experiments. To expand cells prior to assay, frozen hCaSMC or hCaEC cells were thawed and cultured in T-162 flasks in smooth muscle growth medium (SmGM) or endothelial cell growth medium-2 (EGM-2), respectively, with the appropriate supplements. The cell medium was changed the next day and then every other day until cells reached 70-90% confluency. Growth medium was removed and cells were rinsed twice with PBS (without Ca^2+ and Mg^2+). To detach cells, sufficient trypsin/EDTA (3 ml) was added to cover the cell monolayer and the flask incubated at room temperature. After cells detached, trypsin was neutralized by addition of 6 ml complete medium. Cells were counted, transferred to a 50 ml tube and centrifuged. The cell pellet was re-suspended in growth medium to the appropriate cell density for experiments.
(§4) Cells (hCaEC or hCaSMC) were synchronized for 24 hours in basal media prior to all migration experiments. In acute studies, cells were collected, counted, and 200,000 hCaEC or 160,000 hCaSMC placed in the upper chambers of modified boyden chambers in 24 well plates (BD Biosciences). Plates contained microporous Fluoroblok membranes of 3.0 and 8.0 um for hCaEC and hCaSMC, respectively (Beckton Dickensen Biosciences). Chambers used in hCaEC migration experiments were coated with fibronectin (BD BioCoat). In pretreatment experiments, cells were synchronized in the presence of drug or treated for 24 hours in growth media after synchronization but prior to cell counting and migration. All cells were resuspended in basal media containing drugs or solvent (control) prior to migration. Cells were allowed to migrate in response to chemotatic agents for 22-24 hours. After migration, cells were stained with calcein-AM for 90 minutes and fluorescence determined using a plate reader capable of measuring fluorescence emitted by the bottom of the microporous filter. […]

Experiment [2] concerns human coronary artery smooth muscle cells (hCaSMC). The experiment in a line: hCaSMC migration in modified Boyden chambers. The settings on record: for effect on FBS-induced hCaSMC migration: 24 hours drug pretreatment in growth media, migration in response to FBS alone, FIG. 4; for effect on PDGF-BB stimulated hCaSMC migration: 24 hours pretreatment, PDGF-BB (25 ng/ml), FIG. 5. The experiment is classed as cell-based. The method, then:
as §1, §2, §3, §4

The subject of experiment [3] is p70S6K (T389) phosphorylation. Briefly: Western blot of p70S6K (T389) phosphorylation in hCaEC. The experiment is classed as cell-based, human. The settings on record: for effect on p70S6K T389 phosphorylation in hCaEC: 300 nM drug in growth media for 36 hours after 24 hours synchronization, FIG. 6A. Here is the method: Human Coronary Endothelial Cells (hCaEC, Cambrex) were seeded on 100 mm plastic dishes (1-3×10^5 cells per dish) and incubated at 37° C. with 5% CO2 in complete growth media containing hFGF, HEGF, VEGF, R^3-IGF-1 and 5% FBS (GM). Cells were allowed to grow until dishes were 30-40% confluent. Cells were synchronized by incubation in basal media without supplements (BM) for 24 h. After synchronization the BM was replaced with GM containing test compounds, DMSO and BSA (Experimental dish: GM containing 300 nM test compounds, 0.1% BSA; Positive control: GM containing 0.1% BSA and 0.1% DMSO; Negative control: BM containing 0.1 or 0.5% FBS, 0.1% BSA and 0.1% DMSO).
Cells were incubated for 24 or 36 hours at 37° C. with 5% CO2. After which dishes were 50-70% confluent. Dishes were rinsed with warm PBS to remove excess FBS and than placed on ice. Whole cell lysates were prepared by adding 150-200 ul of RIPA lysis buffer at 4° C. (50 mM Tris HCl pH 8, 150 mM NaCl, 1% NP-40, 0.5% sodium deoxycholate, 0.1% SDS, 2 mM PMSF, 1 mM sodium orthovanadate, and protease inhibitor cocktail, Santa Cruz Biotechnology) to the culture dishes and collected by scrapping the plate surface with a cell scrapper. Lysates were transferred to 1 ml eppendorf tubes and incubated on ice with vortexing for 30 min. Samples were than centrifuged for 8 min at 10000 rpm. […]
The total protein concentration of the samples was determined by a modification of the method of Bradford (Quick Start Bradford Microplate Standard Assay, Bio-Rad) with bovine γ-globulin as a standard.
Total volume of the loaded sample was 45 ul containing 15 ul of 3× sample buffer (Laemmli Sample Buffer, Bio Rad), and sample (30 ul) containing 25 to 50 ug of protein. […] Denaturated samples were separated in 4-15% gradient or 12% Ready Tris-HCl gels (Bio-Rad) in running buffer 25 mM Tris, pH 8.3, 192 mM glycine, 0.1% SDS at 150-180 V for 60-90 minutes and transferred to Hybond-ECL membrane (Amersham Biosciences) in 25 mM Tris, pH 8.3, 192 mM glycine, 20% methanol at 100 V for 1 hour. […]
In general terms: Immunoblotting shows a protein as a band on a membrane.

For experiment [4], the system named is p70S6K (T389) phosphorylation. Briefly: Western blot of p70S6K (T389) phosphorylation in hCaSMC. The experiment is classed as cell-based, human. The following applies: 300 nM drug for 36 hours after 24 hours synchronization; FIG. 7. The method, then:
To determine if inhibition of p70S6K was involved in serum-induced migration Western blot experiments were performed on hCaEC and hCaSMC treated using an experimental paradigm similar to those of the migration experiments. Cells were synchronized for 24 hours in basal media followed by drug treatment in growth media for 36 hours. The effects of drug treatment on p70S6K T389 phosphorylation in hCaEC are illustrated in FIG. 6A-6B.
The hCaSMC were synchronized for 24 hours in basal media and incubated in growth media with or without drugs (300 nM) for 36 hours […]. Membranes were probed with a rabbit anti-phospho-p70S6K (T389) monoclonal antibody (Cell Signaling). […] Furthermore, the anti-migratory activity of the mTOR antagonists is not likely to contribute to their anti-restenotic activity. Conversely, paclitaxel is a potent anti-migratory agent and this effect is likely to contribute to it's anti-restenotic activity.

Another experiment relates to pRb phosphorylation. Briefly: pRb phosphorylation (Western blot, hEC). The experiment is classed as cell-based, human. The source says: Western blots have shown the levels of specific proteins using antibodies to those proteins in response to the rapamycin analog (e.g., zotarolimus). […] It has been shown that paclitaxel and zotarolimus inhibit the activation of p70S6K.
Additionally, it has been shown that paclitaxel, but not zotarolimus or dexamethasone, inhibits migration of human coronary artery endothelial cells in vitro. […] Paclitaxel blocks migration, however, all agents reduce p70S6K (T389) phosphorylation. […] Dexamethasone and zotarolimus are not predicted to inhibit re-endothelialization of vascular legions, and dexamethasone may promote re-endothelialization of vascular lesions. In contrast, paclitaxel inhibits re-endothelialization by blocking endothelial cell and/or smooth muscle cell migration.

[5] abbreviates: acute drug exposure, no pretreatment, 5% FBS, 22 hour migration.

As for `CO[C@H]1C[C@@H]2CC[C@@H](C)[C@@](O)(O2)C(=O)C(=O)N2CCCC[C@H]2C(=O)O[C@H]([C@H](C)C[C@@H]2CC[C@@H](OCCO)[C@H](OC)C2)CC(=O)[C@H](C)/C=C(\C)[C@@H](O)[C@@H](OC)C(=O)[C@H](C)C[C@H](C)/C=C/C=C/C=C/1C` [everolimus], in experiment [1], the “effect on full growth media induced hCaEC migration” value is reported as “only paclitaxel inhibits”.
On to `CC(=O)O[C@H]1C(=O)[C@@]2(C)[C@H]([C@H](OC(=O)c3ccccc3)[C@]3(O)C[C@H](OC(=O)[C@H](O)[C@@H](NC(=O)c4ccccc4)c4ccccc4)C(C)=C1C3(C)C)[C@]1(OC(C)=O)CO[C@@H]1C[C@@H]2O` [paclitaxel], for which, in experiment [1], the “effect on FBS-induced hCaEC migration” value is listed as “significantly blocks”. Moreover, in experiment [1], the “effect on full growth media induced hCaEC migration” value is “inhibits”. In addition, the Emax in experiment [1] (Homo sapiens, Endothelial cell, acute drug exposure, no pretreatment, 5% FBS, 22 hour migration, mean±SEM, n=3, read-out: maximal efficacy of inhibition of hCaEC migration) came out at 96.8 ± 1.8%; in experiment [2] (Homo sapiens, acute drug exposure, no pretreatment, 5% FBS, 22 hour migration, read-out: maximal efficacy of inhibition of hCaSMC migration), 86.9 ± 2.9%. Also, the IC50 is 28.2 ± 3.4 nM in experiment [1] (Homo sapiens, Endothelial cell, acute drug exposure, no pretreatment, migration induced by 5% FBS, 22 hour migration, mean±SEM, n=3, FIG. 1C, read-out: IC50 of inhibition of hCaEC migration) and 87.4 ± 18 nM in experiment [2] (Homo sapiens, acute drug exposure, no pretreatment, 5% FBS, 22 hour migration, read-out: IC50 of inhibition of hCaSMC migration). In addition, the “effect on FBS-induced hCaSMC migration” value in experiment [2] is on record as “significantly blocks”. The “effect on PDGF-BB stimulated hCaSMC migration” value in experiment [2] was “inhibited migration”. In addition, the “effect on p70S6K T389 phosphorylation in hCaEC” value in experiment [3] was “reduces T389 phosphorylation”. Further, in experiment [4], the “effect on p70S6K T389 phosphorylation in hCaSMC” value was “reduces p70S6K”.
Turning to `CO[C@H]1C[C@@H]2CC[C@@H](C)[C@@](O)(O2)C(=O)C(=O)N2CCCC[C@H]2C(=O)O[C@H]([C@H](C)C[C@@H]2CC[C@@H](O)[C@H](OC)C2)CC(=O)[C@H](C)/C=C(\C)[C@@H](O)[C@@H](OC)C(=O)[C@H](C)C[C@H](C)/C=C/C=C/C=C/1C` [sirolimus], in experiment [1] (setting [5]), the “effect on hCaEC migration” value is on record as “no effect”.
Regarding `CO[C@H]1C[C@@H]2CC[C@@H](C)[C@@](O)(O2)C(=O)C(=O)N2CCCC[C@H]2C(=O)O[C@H]([C@H](C)C[C@@H]2CC[C@H](n3cnnn3)[C@H](OC)C2)CC(=O)[C@H](C)/C=C(\C)[C@@H](O)[C@@H](OC)C(=O)[C@H](C)C[C@H](C)/C=C/C=C/C=C/1C` [zotarolimus], in experiment [1], the “effect on FBS-induced hCaEC migration” value is “did not significantly block” and the “effect on full growth media induced hCaEC migration” value is “only paclitaxel inhibits”. For the same compound, in experiment [1] (setting [5]), the “effect on hCaEC migration” value is “no effect”. In experiment [2], the “effect on FBS-induced hCaSMC migration” value is recorded as “did not significantly block” and the “effect on PDGF-BB stimulated hCaSMC migration” value is “inhibited migration”. The “effect on p70S6K T389 phosphorylation in hCaEC” value in experiment [3] is reported as “completely block”. Besides, in experiment [3] (hCaEC, 300 nM drug, FIG. 6B), the “p70S6K T389 to actin ratio compared to growth controls (densitometry)” value is given as “significant inhibition”. The “effect on p70S6K T389 phosphorylation in hCaSMC” value in experiment [4] is “completely inhibit”. Besides, in the experiment with pRb phosphorylation, the “effect on pRb phosphorylation” value was “reduces pRb phosphorylation”.

The record behind these values is US20080003254A1, “SYSTEMS AND METHODS FOR DELIVERING A RAPAMYCIN ANALOG THAT DO NOT INHIBIT HUMAN CORONARY ARTERY ENDOTHELIAL CELL MIGRATION” (ABBOTT LABORATORIES, priority 2006, published 2008).
